Experimental data from the CheMixHub viscosity set.

Assay: xn = mol fraction of the nth substance listed

CCCCNCCCC + CCC(=O)O
viscosity [mPa·s], 101.33 kPa
Conditions | 293.15 K | 293.5 K | 298.15 K | 303.15 K | 308.15 K | 313.15 K | 318.15 K | 323.15 K
x2 = 0.2 | – | 2.45 | 2.21 | 2.05 | 1.87 | 1.69 | 1.54 | 1.44
x2 = 0.4 | 20.21 | – | 15.81 | 12.24 | 9.94 | 7.97 | 6.42 | 5.61
x2 = 0.5 | – | – | – | 48.04 | 35.66 | 27.31 | 21.32 | 17.49
x2 = 0.6 | 109.3 | – | 80.86 | 64.2 | 49.41 | 39.46 | 31.87 | 25.8
x2 = 0.7 | 125.9 | – | 94.32 | 72.81 | 54.5 | 42.04 | 34.15 | 27.7
x2 = 0.75 | 139.3 | – | 102.5 | 74.31 | 58.19 | 44.26 | 35.31 | 27.67
x2 = 0.8 | 16.74 | – | 14.24 | 11.85 | 10.22 | 8.75 | 7.62 | 6.98

CCCC(=O)O + CCC(C)=O
viscosity [mPa·s], 101 kPa
Conditions | x2 = 0.1024 | x2 = 0.2043 | x2 = 0.3057 | x2 = 0.4065 | x2 = 0.5067 | x2 = 0.6064 | x2 = 0.7056 | x2 = 0.8043 | x2 = 0.9024
293.15 K | 1.383 | 1.236 | 1.1 | 0.9737 | 0.8582 | 0.7526 | 0.6569 | 0.571 | 0.4948
303.15 K | 1.2 | 1.078 | 0.9646 | 0.8589 | 0.761 | 0.6716 | 0.5897 | 0.515 | 0.4485
313.15 K | 1.021 | 0.9263 | 0.8368 | 0.7525 | 0.6733 | 0.5989 | 0.5293 | 0.4645 | 0.4044

COCCO + CCC(C)=O
viscosity [mPa·s]
Conditions | 298.15 K | 308.15 K | 318.15 K
101 kPa, x2 = 0.1049 | 1.321 | – | –
101 kPa, x2 = 0.2087 | 1.113 | – | –
101 kPa, x2 = 0.3115 | 0.937 | – | –
101 kPa, x2 = 0.413 | 0.78 | – | –
101 kPa, x2 = 0.5135 | 0.64 | – | –
101 kPa, x2 = 0.6128 | 0.525 | – | –
101 kPa, x2 = 0.7112 | 0.464 | – | –
101 kPa, x2 = 0.8085 | 0.43 | – | –
101 kPa, x2 = 0.9047 | 0.41 | – | –
101.33 kPa, x1 = 0.1014 | 0.423 | 0.378 | 0.339
101.33 kPa, x1 = 0.2118 | 0.474 | 0.419 | 0.373
101.33 kPa, x1 = 0.3001 | 0.53 | 0.469 | 0.418
101.33 kPa, x1 = 0.3864 | 0.591 | 0.521 | 0.463
101.33 kPa, x1 = 0.4984 | 0.695 | 0.607 | 0.534
101.33 kPa, x1 = 0.601 | 0.805 | 0.696 | 0.607
101.33 kPa, x1 = 0.695 | 0.938 | 0.802 | 0.692
101.33 kPa, x1 = 0.8004 | 1.12 | 0.945 | 0.803
101.33 kPa, x1 = 0.9019 | 1.334 | 1.108 | 0.931

CCCCBr + CCC(C)O
viscosity [mPa·s], 101.33 kPa
Conditions | x2 = 0.11 | x2 = 0.208 | x2 = 0.3145 | x2 = 0.3968 | x2 = 0.4998 | x2 = 0.6057 | x2 = 0.7046 | x2 = 0.786 | x2 = 0.8988
298.15 K | 0.613 | 0.642 | 0.689 | 0.742 | 0.833 | 0.975 | 1.176 | 1.428 | 2.018
308.15 K | 0.538 | 0.552 | 0.581 | 0.614 | 0.675 | 0.77 | 0.905 | 1.075 | 1.461
318.15 K | 0.483 | 0.492 | 0.512 | 0.537 | 0.579 | 0.653 | 0.741 | 0.855 | 1.111

CCCCNCCCC + CCC(C)O
viscosity [mPa·s]
Conditions | 298.15 K | 303.15 K | 308.15 K | 318.15 K
101 kPa, x1 = 0.008423 | – | 2.446 | – | –
101 kPa, x1 = 0.01776 | – | 2.42 | – | –
101 kPa, x1 = 0.02719 | – | 2.398 | – | –
101 kPa, x1 = 0.03174 | – | 2.389 | – | –
101 kPa, x1 = 0.04204 | – | 2.369 | – | –
101 kPa, x1 = 0.0502 | – | 2.353 | – | –
101 kPa, x1 = 0.06011 | – | 2.332 | – | –
101 kPa, x1 = 0.06621 | – | 2.32 | – | –
101 kPa, x1 = 0.07608 | – | 2.299 | – | –
101.33 kPa, x1 = 0.0594 | 2.662 | – | 1.888 | 1.409
101.33 kPa, x1 = 0.0839 | 2.525 | – | 1.79 | 1.328
101.33 kPa, x1 = 0.1282 | 2.305 | – | 1.657 | 1.24
101.33 kPa, x1 = 0.1858 | 2.06 | – | 1.516 | 1.147
101.33 kPa, x1 = 0.2618 | 1.787 | – | 1.344 | 1.054
101.33 kPa, x1 = 0.3612 | 1.511 | – | 1.181 | 0.948
101.33 kPa, x1 = 0.4306 | 1.373 | – | 1.089 | 0.886
101.33 kPa, x1 = 0.5042 | 1.246 | – | 1.012 | 0.827
101.33 kPa, x1 = 0.5658 | 1.16 | – | 0.952 | 0.784
101.33 kPa, x1 = 0.6215 | 1.095 | – | 0.898 | 0.753
101.33 kPa, x1 = 0.6856 | 1.031 | – | 0.855 | 0.712
101.33 kPa, x1 = 0.7458 | 0.986 | – | 0.818 | 0.696
101.33 kPa, x1 = 0.794 | 0.959 | – | 0.803 | 0.684
101.33 kPa, x1 = 0.8584 | 0.905 | – | 0.76 | 0.681
101.33 kPa, x1 = 0.9138 | 0.859 | – | 0.733 | 0.661
